Here are results for 77 compounds from PubChem BioAssay AID1645862 (Buhrlage Lab, Dana-Farber Cancer Institute and Novartis …, 2021).

pIC50: −log10 of the molar value. The source made the active and inactive calls. The rule behind the calls is not given here. Bridge positions count the residues as written; N and C are the ends. Square brackets hold non-standard residues; d marks the D form. Peptide text beside a SMILES is read from it. * marks the point of attachment. ξ: configuration not given here. d(aIle) = CC[C@H](C)[C@@H](N)C(=O)O; d(aThr) = C[C@@H](O)[C@@H](N)C(=O)O; X1 = CCCCCCCCCCCC(O)CC(=O)*; ξL = CC(C)CC(N)C(=O)O

Ubiquitin carboxyl-terminal hydrolase 8 (Homo sapiens), sequence (P40818 whole entry, looked up): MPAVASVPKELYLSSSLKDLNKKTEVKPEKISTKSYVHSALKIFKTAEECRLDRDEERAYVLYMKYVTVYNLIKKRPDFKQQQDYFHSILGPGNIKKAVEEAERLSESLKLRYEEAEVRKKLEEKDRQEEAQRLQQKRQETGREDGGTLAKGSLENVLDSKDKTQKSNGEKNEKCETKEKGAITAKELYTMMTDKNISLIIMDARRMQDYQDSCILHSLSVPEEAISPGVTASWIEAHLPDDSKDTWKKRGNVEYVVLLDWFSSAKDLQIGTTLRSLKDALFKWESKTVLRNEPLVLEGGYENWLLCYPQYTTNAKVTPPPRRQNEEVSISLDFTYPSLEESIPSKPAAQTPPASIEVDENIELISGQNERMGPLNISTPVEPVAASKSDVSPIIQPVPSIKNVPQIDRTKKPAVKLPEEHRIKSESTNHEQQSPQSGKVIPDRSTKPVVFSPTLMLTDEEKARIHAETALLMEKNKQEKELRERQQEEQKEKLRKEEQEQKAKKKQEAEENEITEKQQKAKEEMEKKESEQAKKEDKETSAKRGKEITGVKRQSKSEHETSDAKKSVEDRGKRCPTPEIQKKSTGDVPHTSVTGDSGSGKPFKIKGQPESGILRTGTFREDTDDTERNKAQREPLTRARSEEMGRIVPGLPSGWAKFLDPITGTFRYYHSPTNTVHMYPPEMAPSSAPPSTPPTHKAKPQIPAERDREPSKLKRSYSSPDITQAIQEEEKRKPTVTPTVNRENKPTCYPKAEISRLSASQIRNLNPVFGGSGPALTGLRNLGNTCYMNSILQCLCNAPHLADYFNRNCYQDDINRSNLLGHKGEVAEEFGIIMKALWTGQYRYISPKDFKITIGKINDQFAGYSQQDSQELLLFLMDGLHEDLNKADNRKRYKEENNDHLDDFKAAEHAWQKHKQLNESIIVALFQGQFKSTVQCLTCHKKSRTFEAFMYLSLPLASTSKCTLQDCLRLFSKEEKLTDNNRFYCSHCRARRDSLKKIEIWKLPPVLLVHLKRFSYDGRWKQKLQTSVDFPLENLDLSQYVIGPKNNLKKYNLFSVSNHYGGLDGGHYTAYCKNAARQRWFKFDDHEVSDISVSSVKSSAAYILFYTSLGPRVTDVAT

This experiment addresses Ubiquitin carboxyl-terminal hydrolase 8 (Homo sapiens) (UniProt P40818). As to the kind of experiment: Ubiquitin-specific protease 8 inhibitors, concentration-effect, biochemical, validation of initial actives (AID 1645862).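 Note: potency reflects inhibition of USP8 cleavage of a ubiquitin rhodamine substrate.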 As to conditions: recombinant USP8 deubiquitinase activity assay.
In the case of `Cc1cccc(NC(=O)Cn2c(=O)n(-c3cc(C)cc(C)c3)c(=O)c3sccc32)c1`, the IC50 (as a rule, the concentration that inhibits the measured activity by half) was > 40 µM (inactive).

Take `Cc1c(C(=O)NCc2cccc(Br)c2)oc2c1-c1[nH]ncc1CC2`: the IC50 is > 40 µM (inactive).

With `COc1cc(CC(=O)Nc2ccccc2N2CCOCC2)cc(OC)c1OC`, the IC50 was > 40 µM (inactive).

For `CCOc1ccc(-c2nnc(NC(=O)C3CCN(S(=O)(=O)c4ccc5c(c4)CCC5)CC3)o2)cc1`, the IC50 is > 40 µM (inactive).

For the compound `COc1cccc(NC(=O)Cn2cc(C(=O)c3ccc(C)cc3)c(=O)c3cc(Cl)ccc32)c1`, the pIC50 (as a rule, the negative decadic logarithm of the IC50, by convention in mol/L) is 4.71.

`Cc1ccc(-n2c(=O)[nH]c3c(C(N)=O)nc(-c4ccc(OCc5ccccc5)cc4)nc32)cc1`: the IC50 is > 40 µM (inactive).

With `Cc1cc(N2CCN(c3ncccn3)CC2)nc2ccc(NC(=O)c3ccncc3)cc12`, the IC50 was > 40 µM (inactive).

Take `O=C(Cn1c(=O)n(Cc2ccc(C(=O)NCc3ccco3)cc2)c(=O)c2ccccc21)Nc1ccc2c(c1)OCCO2`: the IC50 is > 40 µM (inactive).

For `CCOc1ncccc1C(=O)Nc1ccnn1Cc1ccccc1`, the IC50 is > 40 µM (inactive).

For the compound `COc1ccc(OC)c(NC2=NS(=O)(=O)C(c3cccc(Br)c3)=C2C)c1`, the IC50 is > 40 µM (inactive).

For `COc1cccc(C(=O)Nc2ccc(SC(C)C(=O)Nc3ccc(C(N)=O)cc3)cc2)c1` (configuration not stated), the IC50 is > 40 µM (inactive).

Turning to `CCn1cc2c(n1)c(=O)n(Cc1ccc(C)cc1)c(=O)n2CC(=O)Nc1ccc(F)cc1`, the IC50 is > 40 µM (inactive).

For the compound `Cc1c(Cl)cccc1NC(=O)Cn1cc(C(=O)C2CC2)c2ccccc21`, the IC50 was > 40 µM (inactive).

For `Cc1c(C#N)c2ccccc2n1CC(=O)NCc1ccc2c(c1)OCO2`, the IC50 was > 40 µM (inactive).

Turning to `CC(C)[C@H]1CC[C@@]2(CO2)[C@H]2C(=O)OCC(C(=O)O)=C[C@H]12`, the pIC50 was 4.64.

As to `O=C1CC(O)C(O)c2cccc(O)c21` (configuration not stated), the IC50 is > 40 µM (inactive).

Consider `Cc1ccc(CNCc2cc3c(-c4ccc(F)cc4)nn(-c4ccccc4)c3[nH]c2=O)cc1`, for which the IC50 is > 40 µM (inactive).

Turning to `Cc1ccc(CNC(=O)c2nc(-c3ccc4c(c3)OCC(=O)N4C)no2)cc1`, the IC50 is > 40 µM (inactive).

Take `COc1ccc(Cl)cc1NC(=O)Cn1c(=O)n(CCCCC(=O)NCCc2ccccc2)c(=O)c2ccccc21`: the IC50 is > 40 µM (inactive).

Take `COc1cccc(-n2cnc3cc(C(=O)NCCc4ccccc4)ccc3c2=O)c1`: the IC50 is > 40 µM (inactive).

On to `CCc1ccc(NC(=O)CSc2nc3nccnc3c(=O)n2Cc2ccc(F)cc2)cc1`, for which the IC50 is > 40 µM (inactive).

Turning to `N#Cc1cccnc1N1CCN(C(=O)Nc2cccc3ccccc23)CC1`, the IC50 was > 40 µM (inactive).

Take `Cc1ccc2c(c1)c1ncn(Cc3nc(C)no3)c(=O)c1n2CC(=O)NCc1ccccc1`: the IC50 was > 40 µM (inactive).

With `CCOC(=O)c1cc2c(ccn2-c2ccc(F)cc2)n1CC(=O)Nc1ccc2c(c1)OCCO2`, the IC50 is > 40 µM (inactive).

Consider `CN(C)c1ccc(CNC(=O)c2nnc(C(=O)Nc3ccccc3)s2)cc1`, for which the IC50 is > 40 µM (inactive).

As to `O=C(NC(Cc1ccccc1)c1nc2ccccc2[nH]1)C1CC1` (configuration not stated), the pIC50 is 4.61.

In the case of `CCCCCCCCCC(CCCCCCCCCC(=O)O)O[C@H]1O[C@@H](COC(C)=O)[C@H](O)[C@@H](OC(=O)CC(=O)O)[C@H]1O` (some centres not stated), the IC50 was > 40 µM (inactive).

Regarding `Cc1ccc(Nc2nc(Nc3cccc(F)c3)nc3nccnc23)c(C)c1`, the IC50 was > 40 µM (inactive).

Turning to `CCOc1ccc(NC(=O)Cn2c(=O)n(CCC(=O)NCc3ccco3)c(=O)c3ccccc32)cc1`, the IC50 was > 40 µM (inactive).

Regarding `CCOCc1ccc(C(=O)N[C@H](C)c2nc3cc(-c4ccc(OC)cc4)ncn3n2)cc1`, the IC50 is > 40 µM (inactive).

`COc1ccc(CCN2COc3c(cc(Cl)c4cccnc34)C2)cc1OC`: the IC50 was > 40 µM (inactive).

In the case of `CC(NC(=O)c1ccccc1)c1nc2ccccc2n1CC(=O)Nc1ccc(OC(F)(F)F)cc1` (configuration not stated), the IC50 is > 40 µM (inactive).

Turning to `COc1ccc(-n2c(=O)c3ccc(C(=O)NCCc4ccccc4)cc3n(CC(=O)NCCC3=CCCCC3)c2=O)cc1`, the IC50 is > 40 µM (inactive).

As to `O=C(O)CCCCCN1C(=O)CC(c2ccc(Cl)cc2)CC1=O`, the pIC50 is 4.50.

On to `Cc1noc(-c2ccnc(-n3cnc(C(=O)NCC4CC4)c3)c2)n1`, for which the IC50 is > 40 µM (inactive).

`Cc1cc(N2CCOCC2)nc(N2CCN(C(=O)C(C)Oc3ccccc3)CC2)n1` (configuration not stated): the IC50 was > 40 µM (inactive).

For `COc1ccc(NC(=O)Cn2c(=O)n(CCCCC(=O)NCc3ccco3)c(=O)c3ccccc32)cc1Cl`, the IC50 was > 40 µM (inactive).

In the case of `Cc1cc(O)c(=O)cc2c1C[C@H]1CC(C)(C)/C=C/C[C@@]3(C)Oc4cc(=O)c(O)cc(C)c4C[C@@H]3C[C@H](O)[C@]1(C)O2`, the IC50 was > 40 µM (inactive).

As to `COc1ccc(CNC(=O)Nc2cccc3ccccc23)cc1`, the IC50 is > 40 µM (inactive).

With `Cc1cc(=O)n(C)c2c(O)c3c(cc12)c(C)cc(=O)n3C`, the pIC50 was 6.59.

In the case of `O=C(NCCc1nc2ccccc2n1Cc1ccccc1F)c1ccc(Cl)cc1`, the IC50 is > 40 µM (inactive).

Consider `COc1ccc2cc(C(=O)N3CCC(C(C)C(=O)NCc4cccc(F)c4)CC3)[nH]c2c1` (configuration not stated), for which the IC50 is > 40 µM (inactive).

With `CCCn1c(=O)c2sccc2n2c(CCC(=O)N3CCc4ccccc4C3)nnc12`, the IC50 is > 40 µM (inactive).

As to `COc1cc(/C=C/C(=O)OCC(=O)Nc2ccc([N+](=O)[O-])cc2OC)ccc1O`, the pIC50 is 4.58.

`COc1ccccc1/C=C/C(=O)NC(Cc1ccccc1)c1nc2ccccc2[nH]1` (configuration not stated): the IC50 is > 40 µM (inactive).

As for `Cc1c(C)n(-c2ccccc2)c2ncn(CC(=O)NCc3cccc(F)c3)c(=O)c12`, the IC50 was > 40 µM (inactive).

In the case of `O=C(Cn1c(=O)n(Cc2ccc(C(=O)NC3CCCC3)cc2)c(=O)c2ccccc21)c1ccc(Cl)c(Cl)c1`, the IC50 was > 40 µM (inactive).

With `NC(=O)C1(N2CCCCC2)CCN(c2ncc3c(=O)n(-c4ccccc4)c(=O)[nH]c3n2)CC1`, the IC50 is > 40 µM (inactive).

`C[C@H](Cc1cc2c(cc1O)OCO2)[C@@H](C)Cc1cc2c(cc1O)OCO2`: the pIC50 was 4.48.

Turning to `CN1CCc2c(C#N)c(N3CCOCC3)nc(NCC3CCCO3)c2C1` (configuration not stated), the IC50 was > 40 µM (inactive).

On to `Cc1cccn2c(=O)c3cc(C#N)c(=O)n(-c4cccc(C(F)(F)F)c4)c3nc12`, for which the IC50 was > 40 µM (inactive).

For the compound `O=C(NCc1ccc2c(c1)OCO2)c1cc2c(s1)-c1ccccc1OC2`, the IC50 was > 40 µM (inactive).

As for `COc1ccc(S(=O)(=O)N2CCc3ccccc32)cc1C(=O)Nc1ccc2c(c1)NC(=O)C(C)O2` (configuration not stated), the IC50 was > 40 µM (inactive).

As for `CNC(=O)Cc1ccc(NC(=O)/C=C/c2cn(-c3ccccc3)nc2-c2ccc(F)cc2)cc1`, the IC50 is > 40 µM (inactive).

Take `CCOc1ccc2[nH]c3c(=O)n(CCc4ccc(OC)cc4)cnc3c2c1`: the IC50 is > 40 µM (inactive).

Turning to `O=C(Nc1cccc(Cl)c1)c1ncn2c1CNS(=O)(=O)c1ccccc1-2`, the IC50 is > 40 µM (inactive).

As to `Cc1cccc(NC(=O)Nc2ccc(C)n(CC(=O)Nc3ccc(C)c(C)c3)c2=O)c1`, the IC50 is > 40 µM (inactive).

As to `Cc1ccc(S(=O)(=O)Nc2cccc(Cl)c2)cc1NC(=O)CCC(=O)c1ccc(Cl)cc1`, the IC50 was > 40 µM (inactive).

Take `O=C(O)c1ccccc1C(=O)Nc1ccc(SC(C(=O)Nc2ccccc2Cl)c2ccccc2)cc1` (configuration not stated): the IC50 was > 40 µM (inactive).

For `O=C(O)c1nccnc1C(=O)N1CCc2ccccc2C1`, the IC50 was > 40 µM (inactive).

Regarding `Cn1cc(-c2nc(C(=O)Nc3ccc(C#N)cc3)cs2)c2cccnc21`, the IC50 is > 40 µM (inactive).

For `Cc1occ2c1C(=O)c1c(O)ccc(O)c1C2`, the pIC50 was 6.18.

Regarding `N#Cc1cccc(NC(=O)COC(=O)c2n[nH]c3ccccc23)c1`, the IC50 is > 40 µM (inactive).

As to `COc1ccc(OC)c(-c2cn3ccn(-c4ccc(F)c(Cl)c4)c(=O)c3n2)c1`, the pIC50 was 4.69.

For `CCCCCCCCCCCC(O)CC(=O)N[C@@H](CC(C)C)C(=O)N[C@H](CCC(=O)O)C(=O)N[C@H]1C(=O)N[C@H]([C@@H](C)CC)C(=O)NC(CC(C)C)C(=O)N[C@H](CO)C(=O)N[C@@H](CC(C)C)C(=O)N[C@@H](CC(C)C)C(=O)N[C@H](CO)C(=O)N[C@@H](C(C)C)C(=O)O[C@@H]1C` (some centres not stated) (X1-L[dE][d(aThr)][d(aIle)][ξL][dS]LL[dS]V; ester 3-C), the IC50 is > 40 µM (inactive).

For `CN1CCC(N2CCN(C(=O)C3CCCN(c4cnc5nccnc5c4)C3)CC2)CC1` (configuration not stated), the IC50 is > 40 µM (inactive).

Regarding `O=C(NC1CCCCCC1)c1cccc(S(=O)(=O)Nc2cc(C(F)(F)F)ccc2Cl)c1`, the IC50 is > 40 µM (inactive).

Regarding `O=C(Cn1c(=O)n(CC2CCC(C(=O)NC3CCCC3)CC2)c(=O)c2ccccc21)NCCC1=CCCCC1` (configuration not stated), the IC50 was > 40 µM (inactive).

`O=C(CC1C(=O)N(C2CCCC2)c2nc3ccccc3n21)Nc1ccccc1` (configuration not stated): the IC50 was > 40 µM (inactive).

With `CCCn1cc(-c2nc(-c3ccccn3)no2)c(=O)c2ccccc21`, the IC50 is > 40 µM (inactive).

As to `O=C(Nc1cccc(-c2nc3cnccc3o2)c1)c1ccc(Br)o1`, the IC50 is > 40 µM (inactive).

As for `CSc1cccc(C(=O)Nc2ccc(-c3nc4ccccc4[nH]3)cc2)c1`, the IC50 was > 40 µM (inactive).

Take `CCOc1ccc2c(c1)c(=O)c(C(=O)c1ccccc1)cn2CC(=O)Nc1ccc(Cl)cc1`: the pIC50 was 4.49.

Turning to `O=C(COc1cccc(-c2noc(-c3ccc([N+](=O)[O-])cc3)n2)c1)Nc1ccccc1`, the IC50 is > 40 µM (inactive).

Regarding `O=C(COc1ccc(N2CC(C(=O)NCc3ccc4c(c3)OCO4)CC2=O)cc1)Nc1ccc(Cl)cc1` (configuration not stated), the IC50 is > 40 µM (inactive).

For the compound `O=C(c1cc(Cl)c(Cl)[nH]1)c1cc(Cl)cc(Cl)c1O`, the IC50 was > 40 µM (inactive).

Take `Cc1ccc(Nc2nc(O)c(CC(=O)Nc3cccc(Cl)c3C)s2)cc1C`: the IC50 was > 40 µM (inactive).
